In ChEMBL document CHEMBL1151438, “In vitro resistance study of rupintrivir, a novel inhibitor of human rhinovirus 3C protease” (Antimicrob Agents Chemother, 2007):

What was measured:
[1] = tested on: rhinovirus B14; experiment: Antiviral activity against HRV14 with 3C protease T129A, T131T/A, T143P mutation infected in human H1-HeLa cells assessed as virus-induced cytopathic effect after 4 passages for 17 days by XTT assay; format: functional, organism-based; conditions: Rhinovirus B, 408 h
[2] = tested on: rhinovirus A2; experiment: Ratio of EC50 for HRV2 infected in human H1-HeLa cells after 2 passages for 10 days to EC50 for wild type HRV2 infected in human H1-HeLa cells; format: functional
[3] = tested on: rhinovirus B14; experiment: Antiviral activity against HRV14 with 3C protease T143P mutation infected in human H1-HeLa cells assessed as virus-induced cytopathic effect after 3 days by XTT assay; format: functional, organism-based; conditions: Rhinovirus B, 72 h
[4] = tested on: rhinovirus B14; experiment: Ratio of EC50 for HRV14 with 3C protease with A121A/V, T129A, T131A, N132S, Y139Y/H, T143P mutation infected in human H1-HeLa cells after 12 passages for 72 days to EC50 for wild type HRV14 infected in human H1-HeLa cells; format: functional
[5] = tested on: rhinovirus B14; experiment: Ratio of EC50 for HRV14 with 3C protease with T129A, T131A, T143P, Y139Y/H mutation infected in human H1-HeLa cells after 10 passages for 55 days to EC50 for wild type HRV14 infected in human H1-HeLa cells; format: functional
[6] = tested on: rhinovirus B14; experiment: Ratio of EC50 for HRV14 infected in human H1-HeLa cells after 9 passages for 48 days to EC50 for wild type HRV14 infected in human H1-HeLa cells; format: functional
[7] = tested on: rhinovirus A2; experiment: Ratio of EC50 for HRV2 infected in human H1-HeLa cells after 9 passages for 62 days to EC50 for wild type HRV2 infected in human H1-HeLa cells; format: functional
[8] = tested on: rhinovirus B14; experiment: Ratio of EC50 for HRV14 infected in human H1-HeLa cells after 3 passages for 14 days to EC50 for wild type HRV14 infected in human H1-HeLa cells; format: functional
[9] = tested on: rhinovirus A2; experiment: Ratio of EC50 for HRV2 with 3C protease N165T mutation infected in human H1-HeLa cells after 4 passages for 24 days to EC50 for wild type HRV2 infected in human H1-HeLa cells; format: functional
[10] = tested on: rhinovirus B14; experiment: Ratio of EC50 for HRV14 with 3C protease T129A, T131A, Y139H, T143P mutation infected in human H1-HeLa cells to EC50 for wild type HRV14 infected in human H1-HeLa cells; format: functional
[11] = tested on: rhinovirus A39; experiment: Ratio of EC50 for HRV39 infected in human H1-HeLa cells after 5 passages for 29 days to EC50 for wild type HRV39 infected in human H1-HeLa cells; format: functional
[12] = tested on: rhinovirus B14; experiment: Antiviral activity against HRV14 with 3C protease T129A, T131A, T143P, Y139Y/H mutation infected in human H1-HeLa cells assessed as virus-induced cytopathic effect after 10 passages for 55 days by XTT assay; format: functional, organism-based; conditions: Rhinovirus B
[13] = tested on: rhinovirus A2; experiment: Ratio of EC50 for HRV2 with 3C protease E3E/G, A103A/V, N165T mutation infected in human H1-HeLa cells after 9 passages for 62 days to EC50 for wild type HRV2 infected in human H1-HeLa cells; format: functional
[14] = tested on: rhinovirus B14; experiment: Antiviral activity against HRV14 with 3C protease A121A/V, T129A, T131A, T143P, Y139Y/H mutation infected in human H1-HeLa cells assessed as virus-induced cytopathic effect after 11 passages for 65 days by XTT assay; format: functional, organism-based; conditions: Rhinovirus B
[15] = tested on: rhinovirus B14; experiment: Ratio of EC50 for HRV14 infected in human H1-HeLa cells after 1 passage for 6 days to EC50 for wild type HRV14 infected in human H1-HeLa cells; format: functional
[16] = tested on: rhinovirus A2; experiment: Antiviral activity against wild type HRV2 infected in human H1-HeLa cells assessed as virus-induced cytopathic effect after 3 days by XTT assay; format: functional, organism-based; conditions: Rhinovirus A, 72 h
[17] = tested on: rhinovirus A2; experiment: Antiviral activity against HRV2 infected in human H1-HeLa cells assessed as virus-induced cytopathic effect after 3 passages for 17 days by XTT assay; format: functional, organism-based; conditions: Rhinovirus A, 408 h
[18] = tested on: rhinovirus B14; experiment: Ratio of EC50 for HRV14 with 3C protease T129A, T131T/A, T143P mutation infected in human H1-HeLa cells after 4 passages for 17 days to EC50 for wild type HRV14 infected in human H1-HeLa cells; format: functional
[19] = tested on: rhinovirus B14; experiment: Ratio of EC50 for HRV14 with 3C protease Y139H mutation infected in human H1-HeLa cells to EC50 for wild type HRV14 infected in human H1-HeLa cells; format: functional
[20] = tested on: rhinovirus A39; experiment: Ratio of EC50 for HRV39 with 3C protease S105S/T, N130K, L136F mutation infected in human H1-HeLa cells after 9 passages for 50 days to EC50 for wild type HRV39 infected in human H1-HeLa cells; format: functional
[21] = tested on: rhinovirus B14; experiment: Antiviral activity against 0.02 MOI HRV14 infected in human H1-HeLa cells assessed as cell killing after 5 passages for 22 days by XTT assay; format: functional
[22] = tested on: rhinovirus A2; experiment: Ratio of EC50 for HRV2 infected in human H1-HeLa cells after 3 passages for 17 days to EC50 for wild type HRV2 infected in human H1-HeLa cells; format: functional
[23] = tested on: rhinovirus A2; experiment: Ratio of EC50 for HRV2 infected in human H1-HeLa cells after 1 passage for 6 days to EC50 for wild type HRV2 infected in human H1-HeLa cells; format: functional
[24] = tested on: rhinovirus B14; experiment: Ratio of EC50 for HRV14 infected in human H1-HeLa cells after 2 passages for 11 days to EC50 for wild type HRV14 infected in human H1-HeLa cells; format: functional
[25] = tested on: rhinovirus A39; experiment: Antiviral activity against HRV39 with 3C protease S105T, N130K, L136F mutation infected in human H1-HeLa cells assessed as virus-induced cytopathic effect after 9 passages for 50 days by XTT assay; format: functional, organism-based; conditions: Rhinovirus A
[26] = tested on: rhinovirus A2; experiment: Ratio of EC50 for HRV2 infected in human H1-HeLa cells after 6 passages for 37 days to EC50 for wild type HRV2 infected in human H1-HeLa cells; format: functional
[27] = tested on: rhinovirus A2; experiment: Ratio of EC50 for HRV2 infected in human H1-HeLa cells after 8 passages for 52 days to EC50 for wild type HRV2 infected in human H1-HeLa cells; format: functional
[28] = tested on: rhinovirus A39; experiment: Ratio of EC50 for HRV39 infected in human H1-HeLa cells after 3 passages for 14 days to EC50 for wild type HRV39 infected in human H1-HeLa cells; format: functional
[29] = tested on: Human rhinovirus sp.; experiment: Ratio of EC50 for HRV Hanks infected in human H1-HeLa cells after 6 passage for 40 days to EC50 for wild type HRV Hanks infected in human H1-HeLa cells; format: functional
[30] = tested on: rhinovirus A39; experiment: Ratio of EC50 for HRV39 with 3C protease […], L136/F mutation infected in human H1-HeLa cells after 5 passages for 29 days to EC50 for wild type HRV39 infected in human H1-HeLa cells; format: functional
[31] = tested on: Human rhinovirus sp.; experiment: Ratio of EC50 for HRV Hanks infected in human H1-HeLa cells after 1 passage for 7 days to EC50 for wild type HRV Hanks infected in human H1-HeLa cells; format: functional

CCOC(=O)/C=C/[C@H](C[C@@H]1CCNC1=O)NC(=O)[C@@H](CC(=O)[C@@H](NC(=O)c1cc(C)on1)C(C)C)Cc1ccc(F)cc1 [RUPINTRIVIR]
EC50 [1]: 227 nM | Ratio EC50 [2]: 1 | EC50 [3]: 15 nM | Ratio EC50 [4]: 20 | Ratio EC50 [5]: 15 | Ratio EC50 [6]: 60 | Ratio EC50 [7]: 15 | Ratio EC50 [8]: 5 | Ratio EC50 [9]: 2 | Ratio EC50 [10]: 7 | Ratio EC50 [11]: 6 | EC50 [12]: 324 nM | Ratio EC50 [13]: 5 | EC50 [14]: 335 nM | Ratio EC50 [15]: 3.5 | EC50 [16]: 30 nM | EC50 [17]: 34 nM | Ratio EC50 [18]: 11 | Ratio EC50 [19]: 1 | Ratio EC50 [20]: 4 | Activity [21]: 88.2% | Ratio EC50 [22]: 3 | Ratio EC50 [23]: 1 | Ratio EC50 [24]: 3.5 | EC50 [25]: 94 nM | Ratio EC50 [26]: 5 | Ratio EC50 [27]: 15 | Ratio EC50 [28]: 6 | Ratio EC50 [29]: 3 | Ratio EC50 [30]: 3 | Ratio EC50 [31]: 1
